Columns and labels:
Aphids [1] = assay: Controlled environment, 2% glyceride emulsion: aphid survival on apple; format: in vivo; conditions: ‘Delicious’ apple
Procedure: (§1) Plant materials used for tests were either branches obtained from the fields or trees grew in pots in a green house.
(§2) Plants growing in pot were inoculated with pests or pathogen and sprayed with 2% glyceride emulsions. Death rate of pests or number of lesions was evaluated one to three weeks after treatment.
(§3) Since mineral oil has been widely used for insect pest and disease control in agriculture (Taschenberg, 1952; Walsh et al., 2000), it was included in the experiments for comparison.

Mites [2] = assay: Controlled environment, 2% glyceride emulsion: mite survival on apple; format: in vivo, European red mite (ERM); conditions: ‘Delicious’ apple
From the text: as §1
(§4) To test the effects of different glycerides on over winter pests such as San Jose Scale (SJS) or European red mite (ERM) on pome or stone fruit trees, stems from dormant ‘Delicious’ apple trees and ‘Feng Huang’ peach trees infested with SJS were collected and dipped in 2% of different glyceride emulsions with the untreated served as control. Stems were then trimmed to 25 cm long by removing from the base, put in a plate with the base submerging in 1-cm thick water, and incubated at 23 degree C for 2 weeks in a chamber. After incubation, 15 overwintering SJS (‘Black-cap’ stage of first instar) per stem were examined microscopically and assessed for viability. Apple or peach stems containing ERM eggs were collected in late dormant and treated as described above and incubated at 28 degree C., 80% relative humidity, and 16-hour light/8-hour dark cycle. Mite viability was evaluated by the following method. Stem segment were impaled onto insect pins that had been driven through 10×12 cm white posterboard containing a thin coat of sticky gel to trip newly hatched mites and facilitate their counting. Eggs were examined every 2 days until hatch was complete. […]

Psylla = assay: Controlled environment, 2% glyceride emulsion: psylla survival on apple; format: in vivo; conditions: ‘Delicious’ apple
Procedure: as §1, §2, §3

Whitefly [3] = assay: Controlled environment, 2% glyceride emulsion: whitefly survival on apple; format: in vivo; conditions: ‘Delicious’ apple
Procedure: as §1, §2, §3

SJS = assay: Controlled environment, 2% glyceride emulsion: SJS survival on apple; format: in vivo, San Jose Scale (SJS); conditions: ‘Delicious’ apple
From the text: as §1, §4

Aphids [4] = assay: Controlled environment, 2% glyceride emulsion: aphid survival on orange; format: in vivo; conditions: ‘Qi Cheng’ orange
Procedure: as §1, §2, §3

Mite = assay: Controlled environment, 2% glyceride emulsion: mite survival on orange; format: in vivo; conditions: ‘Qi Cheng’ orange
Procedure: as §1, §2, §3

Aphids [5] = assay: Controlled environment, 2% glyceride emulsion: aphid survival on cotton; format: in vivo
Procedure: as §1, §2, §3

Whitefly [6] = assay: Controlled environment, 2% glyceride emulsion: whitefly survival on cotton; format: in vivo
Procedure: as §1, §2, §3

Aphids [7] = assay: Controlled environment, 2% glyceride emulsion: aphid survival on wheat; format: in vivo
Procedure: as §1, §2, §3

Mites [8] = assay: Controlled environment, 2% glyceride emulsion: mite survival on wheat; format: in vivo
Procedure: as §1, §2, §3

Aphids [9] = assay: Controlled environment, 2% glyceride emulsion: aphid survival on tomato; format: in vivo
Procedure: as §1, §2, §3

Mites [10] = assay: Controlled environment, 2% glyceride emulsion: mite survival on tomato; format: in vivo
Procedure: as §1, §2, §3

Aphids [11] = assay: Controlled environment, 2% glyceride emulsion: aphid survival on cabbage; format: in vivo
Procedure: as §1, §2, §3

Whitefly [12] = assay: Controlled environment, 2% glyceride emulsion: whitefly survival on cabbage; format: in vivo
Procedure: as §1, §2, §3

Scab = assay: Controlled environment, 2% glyceride: scab severity on apple; format: in vivo; conditions: ‘Delicious’ apple
Procedure: as §1, §2, §3

Powdery mildew [13] = assay: Controlled environment, 2% glyceride: powdery mildew severity on apple; format: in vivo; conditions: ‘Delicious’ apple
Procedure: as §1, §2, §3

Bacterial canker = assay: Controlled environment, 2% glyceride: bacterial canker severity on peach; format: in vivo; conditions: ‘Feng Hung’ peach
Procedure: as §1, §2, §3

Powdery mildew [14] = assay: Controlled environment, 2% glyceride: powdery mildew severity on peach; format: in vivo; conditions: ‘Feng Hung’ peach
Procedure: as §1, §2, §3

Leaf spot = assay: Controlled environment, 2% glyceride: leaf spot severity on grape; format: in vivo; conditions: ‘Long Yan’ grape
Procedure: as §1, §2, §3

Powdery mildew [15] = assay: Controlled environment, 2% glyceride: powdery mildew severity on grape; format: in vivo; conditions: ‘Long Yan’ grape
Procedure: as §1, §2, §3

Brown rot = assay: Controlled environment, 2% glyceride: brown rot severity on orange; format: in vivo; conditions: ‘Qi Cheng’ orange
Procedure: as §1, §2, §3

Psorosis = assay: Controlled environment, 2% glyceride: psorosis severity on orange; format: in vivo; conditions: ‘Qi Cheng’ orange
Procedure: as §1, §2, §3

Fusarium wilt [16] = assay: Controlled environment, 2% glyceride emulsion: Fusarium wilt severity on cotton; format: in vivo
Procedure: as §1, §2, §3

Verticillium wilt [17] = assay: Controlled environment, 2% glyceride emulsion: Verticillium wilt severity on cotton; format: in vivo
Procedure: as §1, §2, §3

Barley strip = assay: Controlled environment, 2% glyceride emulsion: Barley strip severity on wheat; format: in vivo
Procedure: as §1, §2, §3

leaf scald = assay: Controlled environment, 2% glyceride emulsion: leaf scald severity on wheat; format: in vivo
Procedure: as §1, §2, §3

Leaf-spot = assay: Controlled environment, 2% glyceride emulsion: leaf-spot severity on cabbage; format: in vivo
Procedure: as §1, §2, §3

Verticillium wilt [18] = assay: Controlled environment, 2% glyceride emulsion: Verticillium wilt severity on cabbage; format: in vivo
Procedure: as §1, §2, §3

Bacterial ring rot = assay: Controlled environment, 2% glyceride emulsion: bacterial ring rot severity on potato; format: in vivo
Procedure: as §1, §2, §3

Verticillium wilt [19] = assay: Controlled environment, 2% glyceride emulsion: Verticillium wilt severity on potato; format: in vivo
Procedure: as §1, §2, §3

Bacterial Spot = assay: Controlled environment, 2% glyceride emulsion: bacterial spot severity in tomatoes; format: in vivo
Procedure: as §1, §2, §3

Verticillium wilt [20] = assay: Controlled environment, 2% glyceride emulsion: Verticillium wilt severity in tomatoes; format: in vivo
Procedure: as §1, §2, §3

Fusarium wilt [21] = assay: Controlled environment, 2% glyceride emulsion: Fusarium wilt severity in tomatoes; format: in vivo
Procedure: as §1, §2, §3

TMV (I) = assay: Controlled environment, 2% glyceride emulsion: TMV (I) severity in tomatoes; format: in vivo, tobacco mosaic virus (TMV I)
Procedure: as §1, §2, §3

TMV (II) = assay: Controlled environment, 2% glyceride emulsion: TMV (II) severity in tomatoes; format: in vivo, tomato mosaic virus (TMV II)
Procedure: as §1, §2, §3

TICV = assay: Controlled environment, 2% glyceride emulsion: TICV severity in tomatoes; format: in vivo, tomato infectious chlorosis virus (TICV)
Procedure: as §1, §2, §3

TSWV = assay: Controlled environment, 2% glyceride emulsion: TSWV severity in tomatoes; format: in vivo, tomato spotted wilt virus (TSWV)
Procedure: as §1, §2, §3

CCCCCCCCCCCC(=O)OCC(O)CO (centres unmarked) [Monolaurin]
pest survival (%), Apples, Aphids (Aphids [1]): 34e % | pest survival (%), Apples, Mites (Mites [2]): 0g % | pest survival (%), Apples, Psylla (Psylla): 35e % | pest survival (%), Apples, Whitefly (Whitefly [3]): 31e % | pest survival (%), Apples, SJS (SJS): 0f % | pest survival (%), Oranges, Aphids (Aphids [4]): 31e % | pest survival (%), Oranges, Mite (Mite): 39e % | pest survival (%), Cotton, Aphids (Aphids [5]): 30e % | pest survival (%), Cotton, Whitefly (Whitefly [6]): 31f % | pest survival (%), Wheat, Aphids (Aphids [7]): 21e % | pest survival (%), Wheat, Mites (Mites [8]): 33e % | pest survival (%), Tomato, Aphids (Aphids [9]): 27e % | pest survival (%), Tomato, Mites (Mites [10]): 34e % | pest survival (%), Cabbage, Aphids (Aphids [11]): 17e % | pest survival (%), Cabbage, Whitefly (Whitefly [12]): 28f % | disease severity, Apples, Scab (Scab): 14f^z % of untreated control | disease severity, Apples, Powdery mildew (Powdery mildew [13]): 18f % of untreated control | disease severity, Peaches, Bacterial canker (Bacterial canker): 24f % of untreated control | disease severity, Peaches, Powdery mildew (Powdery mildew [14]): 13g % of untreated control | disease severity, Grapes, Leaf spot (Leaf spot): 37f % of untreated control | disease severity, Grapes, Powdery mildew (Powdery mildew [15]): 16g % of untreated control | disease severity, Oranges, Brown rot (Brown rot): 34e % of untreated control | disease severity, Oranges, Psorosis (Psorosis): 32d % of untreated control | disease severity, Cotton, Fusarium wilt (Fusarium wilt [16]): 43e^z % of untreated control | disease severity, Cotton, Verticillium wilt (Verticillium wilt [17]): 48d % of untreated control | disease severity, Wheat, Barley strip (Barley strip): 19f % of untreated control | disease severity, Wheat, leaf scald (leaf scald): 32f % of untreated control | disease severity, Cabbage, Leaf-spot (Leaf-spot): 23f % of untreated control | disease severity, Cabbage, Verticillium wilt (Verticillium wilt [18]): 46de % of untreated control | disease severity, Potato, Bacterial ring rot (Bacterial ring rot): 47e % of untreated control | disease severity, Potato, Verticillium wilt (Verticillium wilt [19]): 37e % of untreated control | disease severity, Bacterial Spot (Bacterial Spot): 18f^z % of untreated control | disease severity, Verticillium wilt (Verticillium wilt [20]): 26f % of untreated control | disease severity, Fusarium wilt (Fusarium wilt [21]): 29f % of untreated control | disease severity, TMV (I) (TMV (I)): 37e % of untreated control | disease severity, TMV (II) (TMV (II)): 43d % of untreated control | disease severity, TICV (TICV): 33f % of untreated control | disease severity, TSWV (TSWV): 27e % of untreated control

Reference: patent US20020010157A1, “Composition and method for controlling insect pests and diseases on plants” (priority 2000, published 2002)
